Test results reported in US12029730B2, “Pharmaceutical composition for preventing or treating cancer, containing N-1H-benzimidazol-2-yl-3-(1H-pyrrole-1-yl)benzamide as active ingredient” (KOREA INSTITUTE OF RADIOLOGICAL & MEDICAL SCIENCES, priority 2018, dated 2024).

Legend:
Format in all cases: cell-based, human
MCF7 cells [1] = test: 3D culture spheroid formation; details: MCF7 3D culture, AT13148 2 μM, GKI-1 10 μM, MKI-1 10 μM, FIG. 9
Protocol: 3D culture was performed according to the protocol of the manufacturing company TheWell Bioscience. It was inoculated into 24-wells containing a DMEM mixture containing 10,000 MCF7 cells in an MCF7 cell:hydrogel solution in a ratio of 1:3 (v/v) and VitroGel™ 3D-RGD diluted with 0.1% PBS in a ratio of 1:3 (v/v) of a hydrogel:diH2O. Thereafter, incubation was performed at 37° C. for 15 minutes to stabilize the VitroGel 3D-RGD hydrogel. To cover the hydrogel, the same volume of DMEM as the hydrogel was added, and the next day, the hydrogel was treated with a DMSO base drug containing DMSO, AT13148 (2 μM), GKI-1 (10 μM) and MKI-1 (10 μM). The medium was exchanged every 2 days for 14 to 20 days.

MCF7 cells [2] = test: Colonogenic assay and western blotting with 2.5 Gy radiation, MCF7; details: for sensitivity to radiation therapy (colony number): MCF7, 2.5 Gy, compared to DMSO, FIG. 10A/10B
Protocol: A colonogenic assay was performed in order to confirm whether the sensitivity to the radiation treatment effect can be increased when MCF7 cancer cell line was treated with MKI-1. First, breast cancer cells MCF7 (500-1000 cells) were placed in a 60-mm tissue culture medium on a 60 mm culture plate, and treated with MASTL kinase inhibitors (AT13148, MKI-1 and GKI-1), respectively, and then was treated with 2.5 Gy radiation by Biobeam GM8000 (Gamma-Gamma-Service Medical GmbH, Leipzig, Germany) and the control group was not treated with radiation. After 10 to 14 days, the cell colonies were fixed with methanol and stained with 0.5% crystal violet, and the results were shown in FIG. 10A, and the number of colonies shown in the above results was quantified using Image J software to show in 10B, and then western blotting was performed and the results thereof were shown in FIG. 10C.

MCF7 cells [3] = test: Tumorsphere formation assay; details: MCF7, cultured 15 days, compared to DMSO, FIG. 8
Protocol: A tumorsphere formation assay was performed in order to determine whether the selected MKI-1 can effectively reduce the formation of tumorsphere in cancer cells, Breast cancer cells MCF7 (2500-10000 cells) was suspended in serum-free DMEM/F12 (weIGENE) containing 1% penicillin, B-27 (1:50; invitrogen), 20 ng/mL epidermal cell growth factor (R&D Systems) and 20 ng/mL fibroblast growth factor (R&D Systems) and cultured on plates with low adhesion rate. After 24 hours, the cells were treated with MASTL kinase inhibitors (AT13148, MKI-1 and GKI-1), respectively, and cultured for 15 days, and then the diameter of the tumorsphere was measured and quantified, which was shown in FIG. 8.

MCF7 cells [4] = test: Colony formation analysis; details: MCF7, cultured 15 days, compared to DMSO, FIG. 7
Protocol: Colony formation analysis was performed to confirm whether the selected MKI-1 can effectively kill cancer cells. First, breast cancer cells MCF7 (500-1000 cells) were cultured in a 60 mm culture plate, and after 24 hours, it was treated with MASTL kinase inhibitors (AT13148, MKI-1 and GKI-1), respectively and cultured for 15 days. Cells were fixed and stained with […] to which methanol was added to quantify the number of colonies, which was shown in FIG. 7.

BT549 cells = test: WST-8 cell viability assay, breast cancer cell line BT549; details: FIG. 6; for cell viability, BT549: 3.70, 11.11, 33.33 and 100 μM
Protocol: (§1) In addition, the cell line in this experiment was distributed from ATCC (American Type Culture Collection; Manassas, VA). Human-derived tumor cell lines, breast cancer cell lines MCF7 and T47D was cultured in DMEM medium containing 10% fetal bovine serum (FBS; HyClone, South Logan, UT) and 1% penicillin/streptomycin (Corning, NY, USA) at 37° C. and 5% CO2, and the BT549 breast cancer cell line was cultured in RPMI 1640 (Welgene, Daegu, Korea) as a medium used under the same conditions. Human-derived normal cell line MCF10A was cultured in DMEM/F12 (Invitrogen) medium containing 5% horse serum (Invitrogen), 1% penicillin/streptomycin, 20 ng/ml EGF (Peprotech, London, UK), […] (Sigma-Aldrich, MO, USA), 100 ng/ml cholera toxin (Cholera Toxin, Sigma-Aldrich) and 10 μg Insulin (Sigma-Aldrich) at 37° C. and 5% CO2.
(§2) In order to confirm whether the selected MKI-1 can kill only cancer cells, an experiment was performed by treating with MKI-1 and measuring whether the cell viability of breast cancer cell lines and normal cell lines was changed. WST-8 analysis (Cyto X™ cell viability assay kit, LPS solution, Daejeon, Korea) was performed according to the manufacturer's protocol. Cancer cells MCF7 and BT549 and normal cell line MCF10A cells were inoculated into a 96-well plate, cultured for 24 hours, and then treated with MASTL kinase inhibitors at various concentrations (3.70, 11.11, 33.33 and 100 μM). Thereafter, the absorbance was measured at 450 nm using a Versamax micro plate reader (Molecular Devices, CA, USA), and the results were shown in FIG. 6.

MCF10A cells = test: WST-8 cell viability assay, normal cell line MCF10A; details: for cell viability, normal cell line MCF10A: 3.70, 11.11, 33.33 and 100 μM, FIG. 6
Protocol: as §1
Briefly, MCF7 and MCF10A cells were seeded into 96-well plates, incubated for 24 hours, and then was treated with 42 inhibitor candidates. Among the compounds, the multi-AGC kinase inhibitor AT13148 was used as a positive control. Thereafter, the absorbance was measured at 450 nm using a Versamax microplate reader (Molecular Devices, CA, USA), and the results of the experiment were shown in FIG. 1A.
as §2

[5] = system: CD44^high/CD24^low MCF7 cells; test: Colonogenic assay and western blotting with 2.5 Gy radiation, radioresistant CD44high/CD24low MCF7; details: for sensitivity to radiation therapy (colony number): CD44high/CD24low MCF7, 2.5 Gy, compared to DMSO, FIG. 11A/11B
Protocol: A colonogenic assay was performed in order to confirm whether the sensitivity to the radiation treatment effect was increased even in the CD44^high/CD24^low MCF7 cancer cell line having a radioresistant phenotype, when it was treated with MKI-1. First, breast cancer cells CD44^high/CD24^low MCF7 (500-1000 cells) were placed in a 60-mm tissue culture medium on a 60 mm culture plate, and treated with MASTL kinase inhibitors (AT13148, MKI-1 and GKI-1), respectively, and then was treated with 2.5 Gy radiation by Biobeam GM8000 (Gamma-Gamma-Service Medical GmbH, Leipzig, Germany) and the control group was not treated with radiation. After 10 to 14 days, the cell colonies were fixed with methanol and stained with 0.5% crystal violet, and the results were shown in FIG. 11A, and the number of colonies shown in the above results was quantified using Image J software to show in 11B, and then western blotting was performed and the results thereof were shown in FIG. 11C.

[6] = MCF7, after radiation treatment, FIG. 10C
[7] = CD44high/CD24low MCF7, after radiation treatment, FIG. 11C

Row | SMILES | size of cancer cell spheroid (MCF7 cells [1]) | sensitivity to radiation therapy (colony number) (MCF7 cells [2]) | tumorsphere diameter (MCF7 cells [3]) | number of cancer cell colonies (MCF7 cells [4]) | cell viability, BT549 (BT549 cells) | cell viability, normal cell line MCF10A (MCF10A cells) | sensitivity to radiation therapy (colony number) [5] | expression levels of cleaved-PARP and phosphorylated Chk2 (MCF7 cells [2]; [6]) | expression levels of procaspase-2 (MCF7 cells [2]; [6]) | survival rate of cancer cells, BT549 (BT549 cells; 33.33 μM or more) | cell viability of normal cell line (MCF10A) (MCF10A cells; screen of 42 single compounds, FIG. 1A) | expression levels of cleaved-PARP and phosphorylated Chk2 [5, 7] | expression levels of procaspase-2 [5, 7]
1 | Clc1ccc(Nc2cccc(-c3cn[nH]c3)c2)cc1 [GKI-1, N-(4-chlorophenyl)-3-(1H-pyrazol-4-yl)aniline, reference compound] | hardly decreased | no synergistic effect | hardly decreased | hardly decreased | decreases cell viability in a dose-dependent manner | hardly decrease cell viability | no synergistic effect | – | – | – | – | – | –
2 | O=C(Nc1nc2ccccc2[nH]1)c1cccc(-n2cccc2)c1 [MKI-1, N-1H-benzimidazol-2-yl-3-(1H-pyrrol-1-yl) benzamide] | significantly reduced | significantly higher | significantly decreased | significantly reduced | decreases cell viability in a dose-dependent manner | hardly decrease cell viability | significant increase in sensitivity to radiation treatment | increased | decreased | significantly reduced | maintained as high as that of the control group DMSO | increased | decreased
